Where a SMILES comes first, the peptide text is derived from it.
How the values were obtained:
Mu-type opioid receptor [1] = target: Mu-type opioid receptor (Cavia porcellus, UniProt P97266); experiment: Agonistic activity at mu opioid receptor in guinea pig ileum assessed as inhibition of electrically evoked twitch; format: functional, tissue-based
[2] = target: Opioid receptors; mu & delta (Rattus norvegicus) (UniProt P33533+P33535); experiment: Selectivity of rat brain delta opioid receptor over rat brain mu opioid receptor
Chain of Opioid receptors; mu & delta (Rattus norvegicus) (P33533 whole entry, looked up): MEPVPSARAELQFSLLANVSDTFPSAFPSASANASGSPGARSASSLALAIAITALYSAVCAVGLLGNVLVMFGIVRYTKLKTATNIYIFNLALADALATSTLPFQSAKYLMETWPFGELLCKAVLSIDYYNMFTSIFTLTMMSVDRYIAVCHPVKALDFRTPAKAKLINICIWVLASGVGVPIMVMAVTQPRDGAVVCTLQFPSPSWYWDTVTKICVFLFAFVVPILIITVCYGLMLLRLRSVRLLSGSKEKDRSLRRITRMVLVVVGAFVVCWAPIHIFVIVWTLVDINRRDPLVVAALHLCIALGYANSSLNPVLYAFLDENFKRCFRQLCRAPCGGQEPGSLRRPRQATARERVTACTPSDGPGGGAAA
Chain of Opioid receptors; mu & delta (Rattus norvegicus) (P33535 whole entry, looked up): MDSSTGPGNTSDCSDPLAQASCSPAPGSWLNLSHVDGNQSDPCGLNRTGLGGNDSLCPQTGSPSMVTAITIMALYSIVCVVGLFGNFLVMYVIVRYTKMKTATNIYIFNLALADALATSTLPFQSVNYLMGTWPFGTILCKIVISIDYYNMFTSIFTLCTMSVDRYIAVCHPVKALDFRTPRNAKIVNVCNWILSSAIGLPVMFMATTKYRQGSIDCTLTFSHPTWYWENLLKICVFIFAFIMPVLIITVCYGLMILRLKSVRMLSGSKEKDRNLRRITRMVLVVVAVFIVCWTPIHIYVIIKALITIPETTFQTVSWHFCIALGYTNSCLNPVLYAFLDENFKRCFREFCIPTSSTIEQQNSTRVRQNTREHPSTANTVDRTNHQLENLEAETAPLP

[3] = target: Delta-type opioid receptor (Mus musculus) (UniProt P32300); experiment: Antagonist activity at delta opioid receptor in mouse vas deferens assessed as effect on electrically evoked twitch; format: functional, tissue-based; details: filed as antagonist
Chain of Delta-type opioid receptor (Mus musculus) (P32300 whole entry): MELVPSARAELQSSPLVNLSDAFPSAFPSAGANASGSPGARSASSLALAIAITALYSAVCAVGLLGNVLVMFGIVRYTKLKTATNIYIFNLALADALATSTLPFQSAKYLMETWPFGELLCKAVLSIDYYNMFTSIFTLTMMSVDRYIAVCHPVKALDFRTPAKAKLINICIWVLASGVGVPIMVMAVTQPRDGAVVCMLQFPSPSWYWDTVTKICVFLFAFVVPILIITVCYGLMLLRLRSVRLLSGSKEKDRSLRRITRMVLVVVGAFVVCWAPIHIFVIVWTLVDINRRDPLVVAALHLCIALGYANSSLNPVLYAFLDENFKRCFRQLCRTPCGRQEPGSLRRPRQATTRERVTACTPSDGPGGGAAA

[4] = target: Delta-type opioid receptor (Mus musculus, UniProt P32300); experiment: Agonistic activity at delta opioid receptor in mouse vas deferens assessed as inhibition of electrically evoked twitch; format: functional, tissue-based
Chain of Delta-type opioid receptor (Mus musculus, UniProt P32300) (P32300 whole entry): as above

Mu-type opioid receptor [5] = target: Mu-type opioid receptor (Rattus norvegicus, UniProt P33535); experiment: Displacement of [3H]DAMGO from mu opioid receptor in rat brain synaptosomes P2 fraction; format: subcellular
Chain of Mu-type opioid receptor (Rattus norvegicus, UniProt P33535) (P33535 whole entry): as the sequence (P33535 whole entry, looked up) above

[6] = target: Delta-type opioid receptor (Rattus norvegicus, UniProt P33533); experiment: Displacement of [3H]DPDPE from delta opioid receptor in rat brain synaptosomes P2 fraction; format: subcellular
Chain of Delta-type opioid receptor (Rattus norvegicus, UniProt P33533) (P33533 whole entry): as the sequence (P33533 whole entry, looked up) above

Chain of Mu-type opioid receptor (Cavia porcellus, UniProt P97266) (P97266 whole entry): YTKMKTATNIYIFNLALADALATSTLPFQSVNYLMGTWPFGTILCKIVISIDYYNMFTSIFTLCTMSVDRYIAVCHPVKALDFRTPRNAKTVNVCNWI

| SMILES | IC50 (Mu-type opioid receptor [1]) [nM] | Ratio Ki [2] | further results |
| --- | --- | --- | --- |
| Cc1cc(O)cc(C)c1C[C@H](N)C(=O)N1Cc2ccccc2C[C@H]1C(=O)N[C@@H](CCC(=O)O)C(=O)NCCCCCN | > 1000 |  |  |
| Cc1cc(O)cc(C)c1C[C@H](N)C(=O)N1Cc2ccccc2C[C@H]1C(=O)N[C@@H](CCC(=O)O)C(=O)NCCCCCNC(=S)Nc1ccc(-c2c3ccc(=O)cc-3oc3cc(O)ccc23)c(C(=O)O)c1 | > 1000 |  |  |
| Cc1cc(O)cc(C)c1C[C@H](N)C(=O)N1Cc2ccccc2CC1C(=O)N[C@@H](CCC(=O)O)C(=O)NCCCCCN (stereo not given in full) |  | 1700 |  |
| Cc1cc(O)cc(C)c1C[C@H](N)C(=O)N1Cc2ccccc2CC1C(=O)N[C@@H](CCC(=O)O)C(=O)NCCCCCNC(=S)Nc1ccc(-c2c3ccc(=O)cc-3oc3cc(O)ccc23)c(C(=O)O)c1 (stereo not given in full) |  | 4370 | Activity [3]: Irreversible Antagonist |
| Cc1cc(O)cc(C)c1C[C@H](N)C(=O)N1Cc2ccccc2C[C@H]1C(=O)N[C@@H](CCC(=O)O)C(N)=O (HELM PEPTIDE1{[Cc1cc(O)cc(C)c1C[C@H](N)C(=O)[*:2]].[Tic].E.[am]}$$$$V2.0) | > 1000 | 22600 | IC50 [4]: 2.58 nM (agonist); Ki (Mu-type opioid receptor [5]): 1360 nM (antagonist); Ki [6]: 0.06 nM (antagonist) |

From ChEMBL document CHEMBL1149280, “Highly selective fluorescent analogue of the potent delta-opioid receptor antagonist Dmt-Tic” (J Med Chem, 2004)
